Reference: patent US5736523A, “Antineoplastic heteronapthoquinones” (Biochem Pharma Inc., priority 1995, dated 1998)
Counter-ions that a name gives are not always drawn.

What follows are molecules tested on SKVLB (Ovarian; multidrug resistant) (assay: In vitro cytotoxicity, microculture tetrazolium (MTT) assay, SKVLB). Conditions: SKVLB cell line.
Type: cell-based, human
Method: In Vitro Cytotoxicity--Microculture Tetrazolium Assay
The microculture tetrazolium assay was used to test in vitro cytotoxicity. This assay is described in Plumb, J. A. et al., 1989 Cancer Research 49, 4435-4440, which is herein incorporated by reference. The cytotoxicity of compounds towards tumor cells is measured in vitro using the assay. This assay method is based upon the ability of live, but not dead cells to reduce the yellow water soluble dye 3-(4;5-dimethylthiazol-2-yl)-2,5-diphenyltetrazolium bromide (MTT) to its water insoluble purple formazan product.
Human Tumor Cell lines, used were:
SKVLB (Ovarian; multidrug resistant)--Dr. V. Ling, Ontario
The cells were maintained in exponential growth in culture in minimal essential media (MEM) supplemented with non-essential amino acids, and containing 15% (v/v) fetal bovine serum, 5 mM L-glutamine, 1 mM sodium pyruvate, and 0.1 U/ml insulin. All cell lines were grown at 37° C. in an atmosphere of 5% CO2 in air.
Test compounds: 20 mM in DMSO and diluted to a final concentration of 200 μM in culture medium before use.
The following is the generic description of the assay method. It should be noted that although the conditions described work well with the cells listed above, the initial plating density and the MTT concentration used should be verified for each new cell line used to test compounds.
For each assay, doxorubicin is included as an inter-assay standard. This allows us to monitor the behaviour of the assay in general, and in particular, to check that the SKVLB line has maintained its resistant phenotype.
The plate layout is done in the following manner: The assays are carried out in 96-well (8 well×12 well) microtiter plates. Serial dilutions of the compound are tested along the length of the plate. A 1:3 serial dilution of compound in culture medium covers a concentration range from 100 μM to 1.7 nM. Each concentration of compound is tested in quadruplet, allowing two compounds to be tested per plate. Wells containing no cells (blank) and cells with no test compound (control) are included on each plate.
Cells are plated out in 100 μl of culture medium in the microtiter plates at a density of around 1,500-4,000 cells per well. The plates are incubated overnight to allow the cells to become adherent after which the test compound is added (100 μl of appropriate dilution per well). The cells are incubated with test compound at 37° C. for 48 h after which the compound is replaced with fresh medium. After a further 48 h incubation at 37° C., 50 μl of MTT solution (2 mg/ml) is added to each well. The plates are incubated in the dark for 4 h at 37° C. after which the medium is removed. The MTT formazan product is extracted from the cells by the addition of 200 μl DMSO followed by 50 μl of Sorensen's buffer. The plates are shaken briefly and the absorbance at 570 nm is read using a Molecular Devices UV max plate reader. Curves are fit to the MTT assay data using a four parameter logistic equation, and the data are normalized to fit a 0% to 100% survival scale.
`COC1OC(C(=O)NCCCN(C)C)=CC2=C1C(=O)c1ccccc1C2=O` (stereo not shown) [BCH2051, 1-Methoxy-5,10-dioxo-5,10-dihydro-1H-naphtho[2,3-c]pyran-3-[N-(3-dimethylamino-propyl)carboxamide] hydrochloride monohydrate] was tested, and the “multidrug resistance / effectiveness in multidrug resistant cell line” value was “significantly avoiding multidrug resistance”.

Same assay, conditions: in vitro
With `COC1OC(C(=O)NCCCN(C)C)=CC2=C1C(=O)c1ccccc1C2=O` (stereo not shown) [BCH2051, 1-Methoxy-5,10-dioxo-5,10-dihydro-1H-naphtho[2,3-c]pyran-3-[N-(3-dimethylamino-propyl)carboxamide] hydrochloride monohydrate] the “in vitro antitumor potency” value was “intense in vitro antitumor potency”.

Same assay, conditions: ratio SKVLB / SKOV3
With `CC(=O)[C@@H]1CC2=C(C(=O)c3ccccc3C2=O)[C@@H](O[C@@H]2O[C@@H](C)[C@@H](O)[C@@H](O)[C@H]2I)O1` [BCH2015, (1'S,1R,3S)-methyl-(1-[2',6'-dideoxy-3',4'-dihydroxy-2'-iodo-L-lyxohexopyranose]-5,10-dioxo-3,4,5,10-tetrahydronaphtho [2,3-c]-pyran-3-yl) ketone] the VLB/OV3 was 3.19. `CC[C@H]1CC2=C(C(=O)c3ccccc3C2=O)[C@H](O[C@H]2C[C@H](NC(=O)C(F)(F)F)[C@H](O)[C@H](C)O2)O1` [BCH2020, (1'S,1S,3S)-5,10-dioxo-3-ethyl-1-(2',3',6'-trideoxy-3'-trifluoroacetamido-L-lyxohexopyranose)-3,4,5,10-tetrahydro-1H-naphtho-[2,3-c]-pyran] was tested, and the VLB/OV3 was 2.31. `CC[C@H]1CC2=C(C(=O)c3ccccc3C2=O)[C@H](O[C@H]2C[C@H](N)[C@H](O)[C@H](C)O2)O1` [BCH2021, (1'S,1S,3S)-5,10-dioxo-3-ethyl-1-(2',3',6'-trideoxy-3'-amino-L-lyxohexopyranose)-3,4,5,10-tetrahydro-1H-naphtho-[2,3-c]-pyran] showed a VLB/OV3 of 3.74. `CC(=O)[C@H]1CC2=C(C(=O)c3ccccc3C2=O)[C@H](O[C@@H]2O[C@@H](C)[C@@H](O)[C@@H](NC(=O)C(F)(F)F)C2I)O1` (stereo partly drawn) [BCH2022, (1'S,1S,3R)-methyl-(1-[2',3',6'-trideoxy-2'-iodo-3'-trifluoroacetamido-4'-hydroxy-L-lyxohexopyranose]-5,10-dioxo-3,4,5,10-tetrahydronaphtho-[2,3-c]-pyran-3-yl) ketone] showed a VLB/OV3 of 4.23. Work on `CC(=O)[C@@H]1CC2=C(C(=O)c3ccccc3C2=O)[C@@H](O[C@@H]2O[C@@H](C)[C@@H](O)[C@@H](NC(=O)C(F)(F)F)C2I)O1` (stereo partly drawn) [BCH2023, (1'S,1R,3S)-methyl-(1-[2',3',6'-trideoxy-2'-iodo-3'-trifluoroacetamido-4'-hydroxy-L-lyxohexopyranose]-5,10-dioxo-3,4,5,10-tetrahydronaphtho-[2,3-c]-pyran-3-yl) ketone] yielded a VLB/OV3 of 4.39. For `C[C@@H]1O[C@@H](O[C@H]2O[C@H](COc3ccccc3)CC3=C2C(=O)c2ccccc2C3=O)C[C@H](NC(=O)C(F)(F)F)[C@@H]1O` [BCH2032, (1'S,1R,3S)-5,10-dioxo-3-phenyloxymethyl-1-(2',3',6'-trideoxy-3'-trifluoroacetamido-L-lyxohexopyranose)-3,4,5,10-tetrahydro-1H-naphtho-[2,3-c] pyran], the VLB/OV3 was 2-2.93. In the case of `CC(=O)[C@@H]1CC2=C(C(=O)c3ccccc3C2=O)[C@@H](O[C@H]2C[C@H](NC(=O)C(F)(F)F)[C@H](O)[C@H](C)O2)S1` [BCH2037, (1'S,1S,3S)-1-(3'-trifluoroacetamido-2',3',6'-trideoxy-L-lyxohexopyranose)-5,10-dioxo-3,4,5,10-tetrahydro-1H-naphtho-[2,3-c]-thiopyran], the VLB/OV3 is reported as 0.93-6.41. `COC1OC(C(=O)Nc2ccccc2)=CC2=C1C(=O)c1ccccc1C2=O` (stereo not shown) [BCH2044, 1-methoxy-3-N-anilinylcarbonyl-5,10-dioxo-5,10-dihydro-1H-naphtho-[2,3-c]-pyran] gave a VLB/OV3 of 3.55. `CC(=O)[C@H]1CC2=C(C(=O)c3ccccc3C2=O)[C@H](O[C@H]2C[C@H](NC(=O)C(F)(F)F)[C@H](Br)[C@H](C)O2)O1` [BCH2047, (1S,3R,1'S)-Methyl-(1-[2',3',4',6'-tetradeoxy-3'-trifluoroacetamido-4'-bromo-L-lyxohexopyranose]-5,10-dioxo-3,4,5,10-tetrahydronaphthaleno-[2,3-c]pyran-3-yl) ketone] showed a VLB/OV3 of 31. `CC(C)[C@@H]1CC2=C(C(=O)c3ccccc3C2=O)[C@@H](O[C@H]2C[C@H](NC(=O)C(F)(F)F)[C@H](O)[C@H](C)O2)O1` [BCH2053, (1'S,1R,3S)-5,10-dioxo-3-isopropyl-1-(2',3',6'-trideoxy-3'-trifluoroacetamido-L-lyxohexopyranose)-3,4,5,10-tetrahydro-1H-naphtho-[2,3-c]-pyran] was tested, and the VLB/OV3 was 4.48. `CO[C@H]1C[C@H](O[C@H]2O[C@H](C(C)=O)CC3=C2C(=O)c2ccccc2C3=O)O[C@@H](C)[C@H]1OS(C)(=O)=O` [BCH2070, (1'-S,1-R,3-S)-methyl-(1-[2',3',4',6' tetradeoxy-3'-methoxy-4'-O-methanesulfonyl-L-lyxohexopyranose)-5,10-dioxo-3,4,5,10 tetrahydronaphtho-[2,3-c]pyran-3-yl) ketone] was tested, and the VLB/OV3 was 14.34-15. With `COC(=O)[C@@]1(C)CC2=C(C(=O)c3ccccc3C2=O)[C@H](O[C@H]2C[C@H](NC(=O)C(F)(F)F)[C@H](O)[C@H](C)O2)O1` [BCH2076, (1'S,1S,3R)-1-(3'-trifluoroacetamido-2',3',6'-trideoxy-lyxo-L-hexopyranose)-3-methoxycarbonyl-3-methyl-3,4,5,10-tetrahydro-5,10-dioxonaphtho-[2,3-c] pyran] the VLB/OV3 was 9. In the case of `COC(=O)[C@]1(C)CC2=C(C(=O)c3ccccc3C2=O)[C@@H](O[C@H]2C[C@H](NC(=O)C(F)(F)F)[C@H](O)[C@H](C)O2)O1` [BCH2077, (1'S,1R,3S)-1-(3'-trifluoroacetamido-2',3',6'-trideoxy-L-lyxohexopyranose)-3-methoxycarbonyl-3-methyl-3,4,5,10-tetrahydro-5,10-dioxo-1H-naphtho-[2,3-c] pyran], the VLB/OV3 is reported as 11. `COC(=O)[C@]1(C)CC2=C(C(=O)c3ccccc3C2=O)[C@H](O[C@H]2C[C@H](NC(=O)C(F)(F)F)[C@H](O)[C@H](C)O2)O1` [BCH2081, (1'S,1S,3S)-1-(3'-trifluoroacetamido-2',3',6'-trideoxylyxohexopyranose)-3-methoxycarbonyl-3-methyl-5,10-dioxo-4,5,10-trihydro-1H-naphtho-[2,3-c]-pyran] gave a VLB/OV3 of 15. Molecule `CC(=O)[C@@]1(C)CC2=C(C(=O)c3ccccc3C2=O)[C@H](O[C@H]2C[C@H](NC(=O)C(F)(F)F)[C@H](O)[C@H](C)O2)O1` [BCH2082, (1'S,1S,3R)-1-(3'-trifluoroacetamido-2',3',6-trideoxy-L-lyxohexopyranose)-3-acetyl-3-methyl-5,10-dioxo-4,5,10-trihydro-1H-naphtho-[2,3-c]-pyran] has a VLB/OV3 of 3. `CC(=O)[C@]1(C)CC2=C(C(=O)c3ccccc3C2=O)[C@H](O[C@H]2C[C@H](NC(=O)C(F)(F)F)[C@H](O)[C@H](C)O2)O1` [BCH2090, (1'S,1S,3S)-1-(3'-trifluoroacetamido-2',3',6'-trideoxy-L-lyxohexopyranose)-3-acetyl-3-methyl-5,10-dioxo-4,5,10-trihydro-1H-naphtho-[2,3-c]-pyran] was tested, and the VLB/OV3 was 3.29. With `CC[C@H]1CO[C@H](O[C@H]2C[C@H](NC(=O)C(F)(F)F)[C@H](O)[C@H](C)O2)C2=C1C(=O)c1ccccc1C2=O` [BCH2091, (1'S,1R,4R)-5,10-dioxo-4-ethyl-1-(2',3',6'-trideoxy-3'-trifluoroacetamido-L-lyxohexopyranose)-3,4,5,10-tetrahydro-1H-naphtho-[2,3-c] pyran] the VLB/OV3 was 3.
